“Also recorded” adds a separate entry of the source.
Columns and labels:
[1] = target: human full-length MKNK1 (Homo sapiens (Human), UniProt Q9BUB5, T344D); assay: MKNK1 kinase high ATP assay (TR-FRET); assay type: biochemical; settings: high ATP (2 mM), 15 min preincubation with enzyme; read-out: MKNK1 IC50
Summary of the method: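 GST-tagged full-length MKNK1 (aa 1–424, T344D; insect-cell expressed) preincubated 15 min with compound, then reacted 30 min at 22 °C with 2 mM ATP and 0.06 μM biotinylated peptide (final) in HEPES pH 7.5 buffer. Phosphopeptide detected by TR-FRET 665/620 ratio, normalized to no-inhibitor and no-enzyme controls.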

[2] = test system: secretion of TNF-α in human PBMCs; assay: In vitro IL-1β-induced cytokine (TNF-α) secretion of human PBMCs; assay type: cell-based; settings: for IC50: PBMC, human PBMCs stimulated with 20 ng/ml IL-1β for 24 hours
Text: In Vitro IL-1β (Interleukin-1 beta, IL-1b)-Induced Cytokine Secretion of Human PBMCs (Peripheral Blood Mononuclear Cells)
The effect of the chemical compounds on the induced cytokine secretion of human PBMCs has been investigated. Here, the cytokine secretion has been induced by IL-1β which binding to its receptors leads to the activation of the MKNK signaling pathway.
(§1) Human PBMCs have been isolated from anti-coagulated human whole blood donated from healthy volunteers by pre-filling Leucosep tubes with ficoll-paque (15 ml, Biochrom, order ID: L6115) and adding 20 ml whole blood. After centrifugation of the blood at 800 g for 15 min at room temperature (RT) plasma including thrombocytes has been discarded. PBMCs were transferred to a new falcon tube, washed with PBS (phosphate-buffered saline) at 250 g for 10 min at RT and resuspended in complete medium [RPMI 1640, without L-glutamine (PAA, order ID: E15-039), 10% FCS; 50 U/ml Penicillin, 50 μg/ml Streptomycin (PAA, order ID: P11-010) and 1% L-glutamine (Sigma, order ID. G7513)]. The assay was performed in a 96-well plate at a cell density of 2.5×10^5 cells/well as triplicates. The compounds were serially diluted in DMSO and added to the PBMCs at a range of 3×10^−9 M to 1×10^−5M with a final concentration of 0.4% DMSO, respectively. Treatment of PBMCs with 0.4% DMSO was used as control. After 30 min of incubation, PBMCs were stimulated with 20 ng/ml IL-1β (R&D, order ID: 201-LB CF) for 24 hours. Cell viability was measured using the CellTiter-Glo Luminescent Assay (Promega, order ID: G7571) following the manufacturers protocol. The amount of secreted TNF-α (tumor necrosis factor-alpha) in the supernatant was determined using the Human Prolnflammatory 9-Plex (MSD, order ID: K15007B) according to manufacturer's instruction. The inhibitory activity was determined as the relation to the control in percent. IC50 values were calculated using the 4-parameter logistic model.

[3] = test system: human peripheral blood mononuclear cells; assay: Cell viability of human PBMCs (CellTiter-Glo Luminescent Assay); assay type: cell-based; settings: IL-1β stimulated, 24 hours
Method: as §1, with “The compounds were serially diluted in DMSO and added to the PBMCs at a range of 3×10^−9 M to 1×10^−5M with a final concentration of 0.4% DMSO, respectively. Treatment of PBMCs with 0.4% DMSO was used as control. After 30 min of incubation, PBMCs were stimulated with 20 ng/ml IL-1β (R&D, order ID: 201-LB CF) for 24 hours.” left out

Chain of human full-length MKNK1 (Q9BUB5 other isoform, or with tags, fused parts or gaps T344D): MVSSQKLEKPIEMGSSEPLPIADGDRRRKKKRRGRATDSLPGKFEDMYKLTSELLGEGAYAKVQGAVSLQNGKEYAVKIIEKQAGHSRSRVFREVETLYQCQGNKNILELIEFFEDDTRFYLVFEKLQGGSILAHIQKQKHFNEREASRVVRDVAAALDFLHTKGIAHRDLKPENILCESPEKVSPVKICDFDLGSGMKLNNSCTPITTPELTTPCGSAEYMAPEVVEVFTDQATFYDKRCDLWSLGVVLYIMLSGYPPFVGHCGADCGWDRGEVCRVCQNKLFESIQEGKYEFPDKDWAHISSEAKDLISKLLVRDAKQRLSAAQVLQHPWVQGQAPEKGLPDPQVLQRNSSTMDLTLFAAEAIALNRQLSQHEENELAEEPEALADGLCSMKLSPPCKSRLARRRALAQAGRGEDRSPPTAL

| SMILES | IC50 [1] [nM] | IC50 [2] [nM] | inhibition of the secretion of TNF-α ([2]; human PBMCs stimulated with IL-1β) | effect on cell viability [3] |
| --- | --- | --- | --- | --- |
| CN(C)[C@H]1CCN(C(=O)[C@H]2CCc3c(sc4ncnc(Nc5ccn6nccc6c5)c34)C2)C1 [Example 41, [(3S)-3-(Dimethylamino)pyrrolidin-1-yl][(7S)-4-(pyrazolo[1,5-a]pyridin-5-ylamino)-5,6,7,8-tetrahydro[1]benzothieno[2,3-d]pyrimidin-7-yl]methanone] | 11 | 10 to 100 | inhibition of the secretion of TNF-α; also recorded: inhibits the secretion of TNF-α in a dose dependent manner | no effect |
| COc1cn2nccc2cc1Nc1ncnc2sc3c(c12)CC[C@H](C(=O)N1CC(N(C)C)C1)C3 [Example 102, [3-(Dimethylamino)azetidin-1-yl](7S)-4-[(6-methoxypyrazolo[1,5-a]pyridin-5-yl)amino]-5,6,7,8-tetrahydro[1]benzothieno[2,3-d]pyrimidin-7-ylmethanone] | 2 | 10 to 100 |  |  |
| COc1cn2nccc2cc1Nc1ncnc2sc3c(c12)CC[C@H](C(=O)N(C)CCO)C3 [Example 103, (7S)—N-(2-Hydroxyethyl)-4-[(6-methoxypyrazolo [1,5-a]pyridin-5-yl)amino]-N-methyl-5,6,7,8-tetrahydro[1]benzothieno[2,3-d]pyrimidine-7-carboxamide] | 3 | 1 to 10 |  |  |
| COCCN(C)C(=O)[C@H]1CCc2c(sc3ncnc(Nc4cc5ccnn5cc4OC)c23)C1 [Example 104, (7S)—N-(2-Methoxyethyl)-4-[(6-methoxypyrazolo[1,5-a]pyridin-5-yl)amino]-N-methyl-5,6,7,8-tetrahydro[1]benzothieno[2,3-d]pyrimidine-7-carboxamide] | 1 | 1 to 10 |  |  |
| COc1cn2nccc2cc1Nc1ncnc2sc3c(c12)CC[C@H](C(=O)N1CC[C@@H](N(C)C)C1)C3 [Example 106, [(3R)-3-(Dimethylamino)pyrrolidin-1-yl](7S)-4-[(6-methoxypyrazolo[1,5-a]pyridin-5-yl)amino]-5,6,7,8-tetrahydro[1]benzothieno[2,3-d]pyrimidin-7-ylmethanone] | < 1 | 1 to 10 |  |  |
| COc1cn2nccc2cc1Nc1ncnc2sc3c(c12)CC[C@H](C(=O)N1CCN(C)CC1)C3 [Example 113, (7S)-4-[(6-Methoxypyrazolo[1,5-a]pyridin-5-yl)amino]-5,6,7,8-tetrahydro[1]benzothieno[2,3-d]pyrimidin-7-yl(4-methylpiperazin-1-yl)methanone] | 1 | 10 to 100 |  |  |
| COc1cn2nccc2cc1Nc1ncnc2sc3c(c12)CC[C@H](C(=O)N1CCOCC1)C3 [Example 116, (7S)-4-[(6-Methoxypyrazolo[1,5-a]pyridin-5-yl)amino]-5,6,7,8-tetrahydro[1]benzothieno[2,3-d]pyrimidin-7-yl(morpholin-4-yl)methanone] | 1 | 10 to 100 |  |  |
| COc1cn2nccc2cc1Nc1ncnc2sc3c(c12)CC[C@H](C(=O)N1CCOC[C@@H]1C)C3 [Example 125, (7S)-4-[(6-Methoxypyrazolo[1,5-a]pyridin-5-yl)amino]-5,6,7,8-tetrahydro[1]benzothieno[2,3-d]pyrimidin-7-yl[(3S)-3-methylmorpholin-4-yl]methanone] | 1 | ≥ 100 |  |  |

Source: patent US10487092B2, “Pyrazolopyridinamines as MKNK1 and MKNK2 inhibitors” (BAYER PHARMA AKTIENGESELLSCHAFT, priority 2014, dated 2019)
